Data from patent US11229618B2 (Amarin Pharmaceuticals Ireland Limited, priority 2012, dated 2022).

Test system: fasting TG levels
Experiment: MARINE: fasting TG lowering and LDL-C
Format: in vivo, human
Details: for median percent reductions in TG from baseline, 4 g/day compared with 2 g/day: 12 weeks
Method: A multi-center, placebo-controlled randomized, double-blind, 12-week study with an open-label extension is performed to evaluate the efficacy and safety of AMR101 in patients with fasting triglyceride levels≥500 mg/dL. The primary objective of the study is to determine the efficacy of AMR101 2 g daily and 4 g daily, compared to placebo, in lowering fasting TG levels in patients with fasting TG levels≥500 mg/dL and ≤1500 mg/dL (≥5.65 mmol/L and ≤16.94 mmol/L).
The primary efficacy variable for the double-blind treatment period is percent change in TG from baseline to Week 12 endpoint. The secondary efficacy variables for the double-blind treatment period include the following: • Percent changes in total cholesterol (TC), high-density lipoprotein cholesterol (HDL-C), calculated low-density lipoprotein cholesterol (LDL-C), calculated non-high-density lipoprotein cholesterol (non-HDL-C), and very low-density lipoprotein cholesterol (VLDL-C) from baseline to Week 12 endpoint; • Percent change in very low-density lipoprotein TG from baseline to Week 12; • Percent changes in apolipoprotein A-I (apo A-I), apolipoprotein B (apo B), and apo A-I/apo B ratio from baseline to Week 12; • Percent changes in lipoprotein(a) from baseline to Week 12 (selected sites only); • Percent changes in LDL particle number and size, measured by nuclear magnetic resonance, from baseline to Week 12 (selected sites only); • Percent change in remnant-like particle cholesterol from baseline to Week 12 (selected sites only); • Percent change in oxidized LDL from baseline to Week 12 (selected sites only); • Changes in FPG and HbA1c from baseline to Week 12; • Change in insulin resistance, as assessed by the homeostasis model index insulin resistance, from baseline to Week 12; • Percent change in lipoprotein associated phospholipase A2 from baseline to Week 12 (selected sites only); • Change in intracellular adhesion molecule-1 from baseline to Week 12 (selected sites only); • Change in interleukin-6 from baseline to Week 12 (selected sites only); • Change in plasminogen activator inhibitor-1 from baseline to Week 12 (selected sites only); • Change in hsCRP from baseline to Week 12 (selected sites only); • Change in serum phospholipid EPA content from baseline to Week 12; • Change in red blood cell membrane EPA content from baseline to Week 12; and • Change in serum phospholipid and red blood cell membrane content in the following fatty acids from baseline to Week 12: docosapentaenoic acid, docosahexaenoic acid, arachidonic acid, palmitic acid, stearic acid, and oleic acid.
MARINE and ANCHOR were 12-week, phase 3, double-blind studies that randomized patients to IPE 4 g/day, 2 g/day, or placebo. […]

Compound: CC/C=C\C/C=C\C/C=C\C/C=C\C/C=C\CCCC(=O)OCC [IPE, all-cis eicosa-5,8,11,14,17-pentaenoic acid ethyl ester]
- effect on LDL-C: without raising LDL-C
- median percent reductions in TG from baseline, 4 g/day compared with 2 g/day: higher with IPE 4 g/day than with 2 g/day
- median percent reductions in TG from baseline, 4 g/day compared with 2 g/day (listed as EPA): higher for subjects administered about 4 grams of EPA per day
- effect on TG levels (patients with very high TG levels): significantly reduced TG levels
